In patent publication US5002886A, “Oxidoreductase and the preparation thereof” (British Gas PLC, priority 1986, dated 1991) one finds Km data, which are given here for two compounds.

This assay relates to oxidoreductase. Briefly: Michaelis constants (Dixon and Webb method, Lineweaver-Burke plots). The format is biochemical, Microbacterium SP. (NCIB 12048). To be noted: two substrate enzyme; calculated from primary Lineweaver-Burke plots. The protocol:
The Michaelis constants (K^m) for NAD^+ and 1,2-ethanediol were calculated using the method described by Dixon, M and Webb, E.C. ("Enzymes", Longman Group Limited, 1964 pp. 84-86) for two substrate enzymes, based on data from primary plots constructed by the Lineweaver-Burke technique.

Structures are written as SMILES.

As usually defined, the Km is the concentration of substrate that gives half-maximal velocity. Consider `OCCO` [Monoethylene Glycol, 1,2-ethanediol], for which the Km is approximately 480 µM.

`NC(=O)c1ccc[n+]([C@@H]2O[C@H](COP(=O)([O-])OP(=O)(O)OC[C@H]3O[C@@H](n4cnc5c(N)ncnc54)[C@H](O)[C@@H]3O)[C@@H](O)[C@H]2O)c1` [NAD^+, nicotinamide adenenine dinucleotide]: the Km is approximately 330 µM.
